Laboratory results published in patent US5565429A, “Peptides derived from trifluoromethylketones” (Adir et Compagnie, priority 1992, dated 1996).

Experiments:
[1] = molecular target: T1, human sputum leucocyte elastase (Homo sapiens, UniProt P08246); assay: In vivo inhibitory activity: model of acute hemorrhagic edema in hamsters; set-up: It is a glycoprotein of 25 to 30 kDa formed from 218 amino acids; from tissue; host or cells: human sputum (purified preparation); conditions: hamster, 10 μg intratracheally 3 hours before elastase (50 units); hemoglobin in broncho-alveolar washing 3 hours after elastase
T1 sequence (P08246 30-247 limits assumed): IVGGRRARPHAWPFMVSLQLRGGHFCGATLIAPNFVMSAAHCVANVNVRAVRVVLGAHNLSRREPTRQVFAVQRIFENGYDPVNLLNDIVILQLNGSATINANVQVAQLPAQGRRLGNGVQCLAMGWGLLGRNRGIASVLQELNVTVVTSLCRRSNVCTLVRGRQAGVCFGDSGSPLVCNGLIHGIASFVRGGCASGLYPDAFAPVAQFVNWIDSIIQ
Experimental: In vivo inhibitory activity: model of acute hemorrhagic edema in hamsters
Tracheal instillation in hamsters of a purified preparation of human sputum leucocyte elastase leads to acute hemorrhaging which can be quantified by measuring the concentration of hemoglobin in the broncho-alveolar washing 3 hours after the elastase instillation.
The study is carried out on male hamsters weighing […] (Syrian Golden, n=10 per batch). The animals are anesthetized with pentobarbital at a dose of 40 mg/kg intraperitoneally.
The hamsters are anesthetized and the trachea is exposed surgically. The products to be tested are administered with the aid of a needle directly into the trachea in a volume of 0.1 ml at a dose of 10 μg. Human sputum leucocyte elastase is administered, 3 hours after administration of the product, intratracheally at a dose of 50 units per animal at a volume of 0.2 ml.
The animals are sacrificed with the aid of a lethal dose of pentobarbital 3 hours after instillation of elastase and a broncho-alveolar washing with physiological serum is carried out. The degree of hemorrhaging is quantified by a colorimetric method which makes it possible to quantitatively determine the hemoglobin concentration (Boehringer hemoglobin test combination).
The results are expressed in percentage of inhibition of hemorrhaging.

[2] = molecular target: T1, human sputum leucocyte elastase; assay: Inhibitory activity for human leucocyte elastase in vitro; format: biochemical; set-up: It is a glycoprotein of 25 to 30 kDa formed from 218 amino acids; purchased Elastin Products Co; host or cells: human sputum (natural enzyme); conditions: methoxysuccinyl-Ala-Ala-Pro-Val paranitroanilide substrate, 15 min incubation, 37° C., pH 7.8
Experimental: This activity is measured by following the kinetics of hydrolysis of the substrate which leads to the release of paranitroaniline which absorbs at a wavelength of 410 nm.
Enzyme: Human sputum leucocyte elastase (Elastin Products Co.) solubilized at 1000 uI/ml of distilled water, and frozen in aliquots of 50 μl at -20° C.
Substrate: methoxysuccinyl-L-alanyl-L-alanyl-propyl-valine paranitroanilide (Sigma chimie).
Buffer: Tris 0.1M; NaCl 0.5M; pH=7.8.
10 μl of the product to be tested or of the solvent (concentrated×100)
10 μl of human sputum leucocyte elastase diluted to 1/10th
Stirring and incubation for 15 min at 37° C.
The reaction is started by addition of 10 μl of substrate.
The cell is introduced into the spectro- photometer, and the optical density is recorded as a function of time at 410 nm at 37° C.
The initial rate is measured for each product concentration (or solvent control) studied.
Percentages of inhibition with respect to the solvent control are calculated:
Percentage of inhibition=100×(control rate-rate of the product
The inhibitory concentrations 50 (IC50) are calculated from the percentages of inhibition by simple linear regression.

| Compound | Inhibition (%) of hemorrhaging [1] | IC50 [2] |
| --- | --- | --- |
| 4-{[3-(3-Azabicyclo[3.3.0]octane)ureido]sulpfonyl}benzoyl-(S)-Val-(S)-Abo-(R,S)-Val-CF3 [Example 2] | 57% | 25 nM |
| CC(C)C(NC(=O)c1ccc(S(=O)(=O)NC(=O)Nc2ccc(Cl)cc2)cc1)C(=O)N1C2CCC(CC2)C1C(=O)NC(C(=O)C(F)(F)F)C(C)C [Example 25, 4-(4-Chlorophenylureidosulfonyl)benzoyl-(S)-Val-(S)-Abo-(R,S)-Val-CF3] | 63% | 34 nM |
| CC(C)C(NC(=O)[C@@H]1C[C@@H]2CCCC[C@@H]2N1C(=O)[C@@H](NC(=O)c1ccc(S(=O)(=O)NC(=O)Nc2ccc(Cl)cc2)cc1)C(C)C)C(=O)C(F)(F)F (stereo partly drawn) [Example 26, 4-(4-Chlorophenylureidosulfonyl)benzoyl-(S)-Val-(2S,3aS,7aS)-Phi-(R,S)-Val-CF3] | 64% | 31 nM |
| CC(C)C(NC(=O)c1ccc(S(=O)(=O)NC(=O)C23CC4CC(CC(C4)C2)C3)cc1)C(=O)N1C2CCC(CC2)C1C(=O)NC(C(=O)C(F)(F)F)C(C)C [Example 28, 4-[(Adamant-1-yl)carbonylaminosulfonyl]benzoyl-(S)-Val-(S)-Abo-(R,S)-Val-CF3] | 57% | 47 nM |
| CC(C)C(NC(=O)[C@@H]1C[C@@H]2CCCC[C@@H]2N1C(=O)[C@@H](NC(=O)c1ccc(S(=O)(=O)NC(=O)Cc2cc(C(C)(C)C)c(O)c(C(C)(C)C)c2)cc1)C(C)C)C(=O)C(F)(F)F (stereo partly drawn) [Example 29, 4-[(3,5-Di-tert-butyl-4-hydroxybenzyl)carbonylaminosulfonyl]benzoyl-(S)-Val-(2S,3aS,7aS)-Phi-(R,S)-Val-CF3] | 63% | 38 nM |
| CC(C)C(NC(=O)[C@@H]1C[C@@H]2CCCC[C@@H]2N1C(=O)[C@@H](NC(=O)c1ccc(S(=O)(=O)NC(=O)c2ccc(CCN3CCC4(CC3)CNC(=O)O4)cc2)cc1)C(C)C)C(=O)C(F)(F)F (stereo partly drawn) [Example 32, 4-{4-[2-(1-Oxa-2-oxo-3,8-diazaspiro[4.5]dec-8-yl)ethyl]benzoylaminosulfonyl}benzoyl-(S)-Val-(2S,3aS,7aS)-Phi-(R,S)-Val-CF3] | 42% | 42 nM |
| CCOCC(O)COc1cc(C(=O)NS(=O)(=O)c2ccc(C(=O)N[C@H](C(=O)N3[C@H](C(=O)NC(C(=O)C(F)(F)F)C(C)C)C[C@@H]4CCCC[C@@H]43)C(C)C)cc2)ccc1OC (stereo partly drawn) [Example 35, 4-{[4-Methoxy-3-(3-ethoxy-2-hydroxypropoxy)-benzoyl]aminosulfonyl}benzoyl-(S)-Val-(2S,3aS,7aS)-Phi-(R,S)-Val-CF3] | 47% | 37 nM |
| CC(C)C(NC(=O)[C@@H]1C[C@@H]2CCCC[C@@H]2N1C(=O)[C@H](CCCCNC(=O)Cc1cc(C(C)(C)C)c(O)c(C(C)(C)C)c1)NC(=O)c1ccc(C(=O)NS(=O)(=O)c2ccc(Cl)cc2)cc1)C(=O)C(F)(F)F (stereo partly drawn) [Example 41, 4-(4-Chlorophenylsulfonylaminocarbonyl)benzoyl-[N-(3,5-di-tert-butyl-4-hydroxyphenyl)acetyl]-(S)-Lys-(2S,3aS,7aS)-Phi-(R,S)-Val-CF3] | 41% | 70 nM |

Other lines, results leading:

| Inhibition (%) of hemorrhaging [1] | IC50 [2] | Compound |
| --- | --- | --- |
| 70% | 15 nM | CC(C)C(NC(=O)[C@@H]1C2CCC(CC2)N1C(=O)[C@@H](NC(=O)c1ccc(C(=O)NS(=O)(=O)c2ccc(Cl)cc2)cc1)C(C)C)C(=O)C(F)(F)F (single isomer, unassigned) [Example 4] |
| 38% | 19 nM | CC(=O)N[C@@H](CSC(C)(C)C)C(=O)NS(=O)(=O)c1ccc(C(=O)N[C@H](C(=O)N2C3CCC(CC3)[C@H]2C(=O)NC(C(=O)C(F)(F)F)C(C)C)C(C)C)cc1 (stereo partly drawn) [Example 18, 4-[S-tert-Butyl-N-acetyl-(S)-cysteinylaminosulfonyl]benzoyl-(S)-Val-(S)-Abo-(R,S)-Val-CF3] |
| 65% | 19 nM | CC(C)C(NC(=O)[C@@H]1[C@@H]2CC[C@@H](C2)N1C(=O)[C@@H](NC(=O)c1ccc(C(=O)NS(=O)(=O)c2ccc(Cl)cc2)cc1)C(C)C)C(=O)C(F)(F)F (stereo partly drawn) [Example 22, 4-(4-Chlorophenylsulfonylaminocarbonyl)benzoyl-(S)-Val-(1S,3S,4R)-Abh-(R,S)-Val-CF3] |
| 61% | 30 nM | CC(C)C(NC(=O)[C@@H]1[C@@H]2CC[C@@H](C2)N1C(=O)[C@@H](NC(=O)c1ccc(S(=O)(=O)NC(=O)c2ccccc2C(=O)N2CCSC2)cc1)C(C)C)C(=O)C(F)(F)F (stereo partly drawn) [Example 23, 4-[2-[(1,3-Thiazolidin-3-yl)carbonyl]benzoylaminosulfonyl]benzoyl-(S)-Val-(lS,3S,4R)-Abh-(R,S)-Val-CF3] |
| 46% | 25 nM | CC(C)C(NC(=O)[C@@H]1C2CCC(CC2)N1C(=O)[C@@H](NC(=O)c1ccc(S(=O)(=O)NC(=O)C(C2CC2)C2CC2)cc1)C(C)C)C(=O)C(F)(F)F (stereo partly drawn) [Example 24, 4-[(Dicyclopropylmethyl)carbonylaminosulfonyl]benzoyl-(S)-Val-(S)-Abo-(R,S)-Val-CF3] |
| 38% | 29 nM | CC(C)C(NC(=O)[C@@H]1C[C@@H]2CCCC[C@@H]2N1C(=O)[C@@H](NC(=O)c1ccc(S(=O)(=O)NC(=O)C(C2CC2)C2CC2)cc1)C(C)C)C(=O)C(F)(F)F (stereo partly drawn) [Example 27, 4-[(Dicyclopropylmethyl)carbonylaminosulfonyl]benzoyl-(S)-Val-(2S,3aS,7aS)-Phi-(R,S)-Val-CF3] |
